In PMC12440775 (Frontiers in Pharmacology, 2025):
Where two headings read alike, the source gives them in different places.

Legend:
[1] = Single ascending dose plasma pharmacokinetics (Part 1); format: in vivo, human; settings: for half-life / AUC(0-inf) / Cmax / Tmax / AUC(0-t) / Vd/F: male, human, plasma; for Vd/F: read-out: Vz/F
Protocol: One dose level was tested within each group. Subject groups were dosed and evaluated sequentially, beginning with the lowest-dose group and proceeding stepwise to the highest-dose group.
(§1) Blood samples were taken pre-dose (0) and at prespecified time points after dosing (Figure 1). At each time point, approximately 4.9 mL of blood was drawn into evacuated collection tubes, containing ethylene diamine tetraacetate (EDTA) anticoagulant and labeled with sample identification information. The EDTA-anticoagulated blood samples were immediately placed on ice and centrifuged at 4 °C and approximately 2000–4,000 g for approximately 10 min in a refrigerated centrifuge as soon as possible after collection. The harvested plasma was split into two aliquots, immediately placed in appropriately labeled tubes, and stored at −20 °C or below until shipment.
(§2) Standard formulas for non-compartmental pharmacokinetic analysis provided by WinNonlin were used in determination of the maximum concentration (Cmax), time to maximum concentration (tmax), oral clearance (CL/F), mean residence time (MRTpo), and apparent volume distribution in terminal phase (Vz/F). The area under the plasma concentration–time curve (AUC) was calculated using a linear up/log down trapezoidal algorithm. The predicted concentration at the last time-point with quantifiable concentration was used for extrapolation of AUC. The fraction excreted as unchanged drug in urine (fe) was calculated as the percentage of the amount of drug excreted in urine as unchanged drug (Aet1–t2) compared to the administered dose ([Huang et al., 2008b]).
The power model was used for the analysis of dose proportionality in terms of AUC0– ∞ and Cmax. The model is described using the following equation: Ykm = α•Dk ^β •ekm. […] Dose linearity requires that β equals 1. […] Statistical analysis was performed using the SAS® program system (version 8.2, Cary, NC) ([Huang et al., 2008b]).

[2] = Food effect on relative bioavailability of 480 mg FDV, two-period crossover (Part 2); format: in vivo, human; settings: for Tmax: median (range); for Tmax / AUC(0-t) / Vd/F / half-life: N = 7; for AUC(0-t) / Vd/F / half-life: mean (CV%); for Vd/F: read-out: Vz/F; for half-life: read-out: t½ (converted)
Protocol: as §1
as §2, with “2008b]). […]” for “2008b]).”

[3] = Safety and tolerability, food effect part (Part 2); format: in vivo, human
Protocol: Six volunteers received the active drug at each dose level dissolved in a polyethylene glycol (PEG)/tromethamine (TRIS)/meglumine solution, and two received a placebo. One dose level was tested within each group. Subject groups were dosed and evaluated sequentially, beginning with the lowest-dose group and proceeding stepwise to the highest-dose group. The next higher dose was administered only if no safety concerns arose during treatment of the preceding group.
Safety was assessed throughout the study by monitoring changes in clinical laboratory parameters (e.g., serum biochemistry, hematology, and urinalysis), 12-lead electrocardiograms, or vital signs (blood pressure, pulse rate, and temperature measurements); monitoring for occurrence of AEs); and carrying out physical examinations.

[4] = set-up: method as in Duan et al., 2012; settings: rats; ref Duan et al., 2012; cited from earlier work
[5] = system: human Hepato Pac model; set-up: method as in Ramsden et al., 2014b; settings: ref Ramsden et al., 2014b; cited from earlier work
[6] = HCV-infected patients, ref Huang et al., cited from earlier work
[7] = system: HCV; set-up: method as in Ferenci et al., 2015; settings: in combination with PegIFN and RBV, treatment-naïve patients; ref Ferenci et al., 2015; cited from earlier work
[8] = system: CYP2C9; settings: therapeutic dose of 120 mg QD; cited from earlier work
[9] = system: CYP3A4; settings: therapeutic dose of 120 mg QD; cited from earlier work
[10] = 480 mg FDV in solution, fed vs fasted
[11] = male, human, plasma, oral, 480 mg, FDV 480 mg/fasted
[12] = male, human, plasma, oral, 480 mg, FDV 480 mg/fed

For `C=C[C@@H]1C[C@]1(NC(=O)[C@@H]1C[C@@H](Oc2cc(-c3csc(NC(=O)C(C)C)n3)nc3c(Br)c(OC)ccc23)CN1C(=O)[C@@H](NC(=O)OC1CCCC1)C(C)(C)C)C(=O)O` [FDV, Faldaprevir], the “Inter-subject variability, gCV of AUC0–∞” value ([1]; higher-dose groups) was 60–80%, the half-life ([1]; oral, range over single doses of 4–1,200 mg, read-out: gMean t1/2) was 15.5 to 39.2 h and the AUC(0-inf) ([1]; oral, range over single doses of 4–1,200 mg, read-out: geometric mean (gMean) AUC0-inf) was 254 to 402000 ng·h/mL. For the same compound, the Cmax ([1]; oral, range over single doses of 4–1,200 mg, read-out: geometric mean (gMean) Cmax) was 3.57 to 16500 ng/mL, the Tmax ([1]; oral, range over single doses of 4–1,200 mg, read-out: median tmax) was 4 to 14 h and the AUC(0-t) ([1]; po, 4 mg) was 201 ng·h/mL. For the same compound, the half-life ([1]; po, 4 mg, FDV 4 mg single oral dose, fasted, gMean (gCV%), read-out: t½ (converted)) was about 39 h, the AUC(0-inf) ([1]; po, 4 mg, read-out: AUC0–∞) was 254 ng·h/mL and the Cmax ([1]; po, 4 mg, read-out: Cmax) was 3.6 ng/mL. The Vd/F ([1]; po, 4 mg) was 868 L, the Tmax ([1]; po, 4 mg, read-out: tmax) was 14 h and the AUC(0-t) ([1]; po, 16 mg) was 1030 ng·h/mL. For the same compound, the half-life ([1]; po, 16 mg, FDV 16 mg single oral dose, fasted, gMean (gCV%), read-out: t½ (converted)) was 31.8 h, the Cmax ([1]; po, 16 mg, read-out: Cmax) was 22.8 ng/mL and the Vd/F ([1]; po, 16 mg) was 600 L. For the same compound, the Tmax ([1]; po, 16 mg, read-out: tmax) was 8 h, the AUC(0-t) ([1]; po, 48 mg) was 3280 ng·h/mL and the half-life ([1]; po, 48 mg, FDV 48 mg single oral dose, fasted, gMean (gCV%), read-out: t½ (converted)) was 37.7 h. It also gave an AUC(0-inf) ([1]; po, 48 mg, read-out: AUC0–∞) of 3980 ng·h/mL, a Cmax ([1]; po, 48 mg, read-out: Cmax) of 86.6 ng/mL and a Vd/F ([1]; po, 48 mg) of 640 L. The Tmax ([1]; po, 48 mg, read-out: tmax) was 8 h, the AUC(0-t) ([1]; po, 120 mg) was 9660 ng·h/mL and the half-life ([1]; po, 120 mg, FDV 120 mg single oral dose, fasted, gMean (gCV%), read-out: t½ (converted)) was 27.4 h. The AUC(0-inf) ([1]; po, 120 mg, read-out: AUC0–∞) was 10700 ng·h/mL, the Cmax ([1]; po, 120 mg, read-out: Cmax) was 344 ng/mL and the Vd/F ([1]; po, 120 mg) was 435 L. For the same compound, the Tmax ([1]; po, 120 mg, read-out: tmax) was 7 h, the AUC(0-t) ([1]; po, 240 mg) was 36100 ng·h/mL and the half-life ([1]; po, 240 mg, FDV 240 mg single oral dose, fasted, gMean (gCV%), read-out: t½ (converted)) was 22.2 h. It also gave an AUC(0-inf) ([1]; po, 240 mg, read-out: AUC0–∞) of 37400 ng·h/mL, a Cmax ([1]; po, 240 mg, read-out: Cmax) of 2070 ng/mL and a Vd/F ([1]; po, 240 mg) of 200 L. It also gave a Tmax ([1]; po, 240 mg, read-out: tmax) of 4 h, an AUC(0-t) ([1]; po, 480 mg) of 74100 ng·h/mL and a half-life ([1]; po, 480 mg, FDV 480 mg single oral dose, fasted, gMean (gCV%), read-out: t½ (converted)) of 33.3 h. For the same compound, the AUC(0-inf) ([1]; po, 480 mg, read-out: AUC0–∞) was 80700 ng·h/mL, the Cmax ([1]; po, 480 mg, read-out: Cmax) was 4300 ng/mL and the Vd/F ([1]; po, 480 mg) was 278 L. It also gave a Tmax ([1]; po, 480 mg, read-out: tmax) of 4 h, an AUC(0-t) ([1]; po, 800 mg) of 127000 ng·h/mL and a half-life ([1]; po, 800 mg, FDV 800 mg single oral dose, fasted, gMean (gCV%), read-out: t½ (converted)) of about 16 h. The AUC(0-inf) ([1]; po, 800 mg, read-out: AUC0–∞) was 128000 ng·h/mL, the Cmax ([1]; po, 800 mg, read-out: Cmax) was 6630 ng/mL and the Vd/F ([1]; po, 800 mg) was 141 L. It also gave a Tmax ([1]; po, 800 mg, read-out: tmax) of 9 h, an AUC(0-t) ([1]; po, 1200 mg) of 397000 ng·h/mL and a half-life ([1]; po, 1200 mg, FDV 1,200 mg single oral dose, fasted, gMean (gCV%), read-out: t½ (converted)) of about 16 h. The AUC(0-inf) ([1]; po, 1200 mg, read-out: AUC0–∞) was 402000 ng·h/mL, the Cmax ([1]; po, 1200 mg, read-out: Cmax) was 16500 ng/mL and the Vd/F ([1]; po, 1200 mg) was 65 L. For the same compound, the Tmax ([1]; po, 1200 mg, read-out: tmax) was 8 h, the “Inter-subject variability, gCV of AUC0–∞” value ([1]; most of the lower-dose groups) was “approximately 30%” and the “Increase of AUC0–∞ (systemic exposure) after high-fat breakfast” value [2, 10] was 14%. For the same compound, the “Increase of Cmax after high-fat and high-calorie breakfast” value [2, 10] was 9%, the “Effect of food on the rBA of FDV” value ([2]; 480 mg FDV in solution, high-fat breakfast) was “no clinically relevant effect” and the Tmax ([2]; FDV 480 mg/fasted) was 4 (4–6) h. The Tmax ([2]; FDV 480 mg/fed) was 6 (4–12) h, the AUC(0-t) [2, 11] was 83400 ng·h/mL and the Vd/F [2, 11] was 161 L. For the same compound, the half-life [2, 11] was 19.6 h, the Tmax ([2]; male, human, plasma, oral, 480 mg, FDV 480 mg/fasted, read-out: tmax) was 6 h and the AUC(0-t) [2, 12] was 92000 ng·h/mL. For the same compound, the Vd/F [2, 12] was 132 L, the half-life [2, 12] was 18 h and the Tmax ([2]; male, human, plasma, oral, 480 mg, FDV 480 mg/fed, read-out: tmax) was 4 h. The “Subjects with increases in total bilirubin” value ([3]; 480 mg, Part 2) was “eight subjects”, the Diarrhea and nausea ([3]; Part 2, FDV 480 mg (n = 8)) was “three subjects” and the Headache ([3]; Part 2, FDV 480 mg (n = 8)) was “one subject”. The Vomiting ([3]; Part 2, FDV 480 mg (n = 8)) was “two subjects”, the “Enrichment in the liver compared with plasma” value [4] was 42 fold and the “Predicted enrichment in the liver in humans” value [5] was 22–32 fold. The “FDV exposure at 240 mg compared to the 120-mg dose, based on trough concentrations” value [6]; 2016 was “approximately 5 fold”, the “FDV exposure at 240 mg compared to the 120-mg dose, based on AUC0–24,ss” value [6]; 2021 was “up to 7 fold” and the “Sustained virologic response (SVR) rate” value [7] was “up to 84%”. For the same compound, the “Effect on CYP2C9” value [8] was “inhibitory effects” and the “Effect on CYP3A4” value [9] was “weak inhibitory effects”.
